Reference: US6844313B1, “Composition containing a meiosis activating substance” (Novo Nordisk A/S, priority 1999, dated 2005)
Converted amounts (≈) assume the structure as drawn. Like-named read-outs stand apart in the source and are kept apart here.

What was measured:
[1] = Solubility of FF-MAS in water, ethanol and ethanol/water; assay type: physicochemical
Protocol: The solubility of a preferred MAS, i.e., FF-MAS, in water is very low, i.e., approximately 20 picogram/ml (corresponding to 2×10^−5 μg/ml), and in ethanol the solubility is substantially higher, i.e., approximately 4 mg/ml. According to our preliminary investigations, the highest solubility of FF-MAS in a mixture of ethanol and water (1:2.5) is approximately 0.4 mg/ml.

[2] = Solubility and appearance of FF-MAS in water/ethanol containing HSA before evaporation; assay type: physicochemical; conditions: Example 3; ethanol/water mixture containing HSA
Protocol: Prepare a saturated ethanolic solution of FF-MAS. Blend with an aqueous solution of the additive in the ration 1:2,5. By visual inspection control that surplus FF-MAS is available in the solution. Rotate the solution for 24 hours at room temperature. Filter the solution through 0,22 […] filter, determine the content of FF-MAS by HPLC and calculate the solubility. Transfer 350μl to 4-well dish and evaporate to dryness at room temperature. Add 500μl MEM AL- PHA medium (Gibcobal). If a clear solution is obtained within half an hour, the composition is tested on oocytes obtained from immature female mice. % GVB obtained is at least 50%, preferable 80%, vide example 1.
In this example, 3 products were prepared. Referring to the table below, the stock solution of FF-MAS used for product 1, 2, and 3 contained 50, 500 and 3330 μg/ml, respectively. For each of the products, the stock solution of HSA contained 20% HSA. The amount of said stock solutions used is stated in the table. For example, for product 1, 400 μl of the FF-MAS stock solution was mixed with 1000 μl of the HSA stock solution. After mixing of these stock solutions, the solutions were clear, and no precipitation was observed therein. After mixing, the amount thereof stated in the table was transferred to 4-well multi-dishes (Nuclon, Denmark). […]

CC(C)=CCC[C@@H](C)[C@H]1CC=C2C3=C(CC[C@@]21C)[C@@]1(C)CC[C@H](O)C(C)(C)[C@@H]1CC3 [FF-MAS, 4,4-dimethyl-5 α-cholesta-8,14,24-triene-3β-ol]
solubility ([1]; ethanol, organic solvent or mixture, read-out: solubility in ethanol): ~4000 µg/mL (≈ 9.74 mM)
solubility ([1]; ethanol/water (1:2.5), aqueous with cosolvent or surfactant or cyclodextrin, ethanol and water (1:2.5), no additive, preliminary investigations, read-out: highest solubility in a mixture of ethanol and water (1:2.5)): ~400 µg/mL (≈ 0.974 mM)
solubility in water ([1]; water): approximately 20 picogram/ml
highest concentration of FF-MAS dissolved [2]: 0.95 mg/mL
